Tests used:
[1] = Crystalline form analysis of dried film by X-ray diffractometry (Test Example 4); assay type: physicochemical; conditions: raw material powder or dried film from the film coating solution
Description: Each film coating solution prepared in Examples 2 and 7 and Comparative Example 2 was sprayed on a Petri dish and dried to form a film. These films were collected, and crystalline forms thereof were analyzed using an X-ray diffractometer (D8 Advance, Bruker) with Cu X-ray radiation at a voltage of 40 kV, at a current of 100 mA, and with a scan rate of 3 deg/min. The results of the X-ray diffractometry of finasteride powder as a raw material, and the dried films prepared using the film coating solutions of Examples 2 and 7 and Comparative Example 2 are shown in FIG. 5.

[2] = Solubility test of finasteride and coating materials (visual observation); assay type: physicochemical; conditions: organic solvent-water mixture solvents of Comparative Example 1, 2, 5, 6, and 7; visually observed
Description: Finasteride, Kollicoat® IR, povidone, and polyvinyl alcohol were added to the organic solvent-water mixture solvents in a variety of ratios presented in Tables 1 to 4, and it was visually observed whether finasteride, Kollicoat® IR, povidone, and polyvinyl alcohol were soluble or not in each of the organic solvent-water mixture solvents.

crystalline form [1]: crystalline
soluble or not [2]: insoluble
Compound: CC(C)(C)NC(=O)[C@H]1CC[C@H]2[C@@H]3CC[C@H]4NC(=O)C=C[C@]4(C)[C@H]3CC[C@]12C [Finasteride, finasteride]

Source: EP3150201B1, “COMPOSITE PREPARATION COMPRISING 5- -REDUCTASE INHIBITOR-CONTAINING FILM COATING LAYER, AND METHOD FOR PRODUCING THE COMPOSITE PREPARATION” (Hanmi Pharm. Co., Ltd., priority 2014, dated 2016)
